“And” between values parts separate entries of the source, which are not always exact repeats. Equal entries are not always repeated.
Assay: phase I safety and tolerability, 120 h continuous infusion every 4 weeks
[1] = Table 4, after infusion (day 6-28), 700 mg m-2 cycle-1, 5 patients studied
[2] = Table 4, after infusion (day 6-28), all dose levels, 39 patients
[3] = Table 4, after infusion (days 6-28), 3 mg m-2 cycle-1, 3 patients studied
[4] = Table 4, after infusion (days 6-28), 6 mg m-2 cycle-1, 4 patients studied
[5] = Table 4, after infusion (days 6-28), 24 mg m-2 cycle-1, 3 patients studied
[6] = Table 4, after infusion (days 6-28), 96 mg m-2 cycle-1, 3 patients studied
[7] = Table 4, after infusion (days 6-28), 400 mg m-2 cycle-1, 6 patients studied
[8] = Table 4, after infusion (days 6-28), 550 mg m-2 cycle-1, 6 patients studied
[9] = Table 4, after infusion (days 6-28), 700 mg m-2 cycle-1, 5 patients studied
[10] = Table 4, after infusion (days 6-28), all dose levels, 39 patients
[11] = Table 4, during infusion (day 1-5), 700 mg m-2 cycle-1, 5 patients studied
[12] = Table 4, during infusion (day 1-5), all dose levels, 39 patients

Structure (SMILES): N=C(N)c1cccc2c1CCC2=NN=C(N)N [SAM486A]
- Dyspnea grade 3-4, no. of patients [1]: 1 patients
- Fatigue grade 3-4, no. of patients [1]: 1 patients
- Somnolence grade 3-4, no. of patients [1]: 1 patients
- Vesicular rash grade 3-4, no. of patients [1]: 1 patients
- Anorexia grade 3-4, Total (%) [2]: 1 (3) patients (%)
- Atrial fibrillation grade 3-4, Total (%) [2]: 1 (3) patients (%)
- Condition aggravated grade 3-4, Total (%) [2]: 1 (3) patients (%)
- Dementia grade 3-4, Total (%) [2]: 1 (3) patients (%)
- Dyspnea grade 3-4, Total (%) [2]: 1 (3) patients (%)
- Fatigue grade 3-4, Total (%) [2]: 2 (5) patients (%)
- Somnolence grade 3-4, Total (%) [2]: 1 (3) patients (%)
- Vesicular rash grade 3-4, Total (%) [2]: 1 (3) patients (%)
- Mucositis nos grade 3-4, Total (%) (Table 4, after infusion (day 6-28), all dose levels, 39 patients, incl. combination): 1 (3) patients (%)
- Anorexia grade 1-4, no. of patients [3]: 1 patients
- Fatigue grade 1-4, no. of patients [3]: 1 patients
- Fatigue grade 1-4, no. of patients [4]: 1 patients
- Nausea grade 1-4, no. of patients [4]: 1 patients
- Fatigue grade 1-4, no. of patients (Table 4, after infusion (days 6-28), 12 mg m-2 cycle-1, 3 patients studied): 1 patients
- Fatigue grade 1-4, no. of patients [5]: 1 patients
- Nausea grade 1-4, no. of patients [5]: 1 patients
- Vomiting grade 1-4, no. of patients [5]: 1 patients
- Nausea grade 1-4, no. of patients [6]: 1 patients
- Vomiting grade 1-4, no. of patients [6]: 1 patients
- Anorexia grade 1-4, no. of patients [7]: 3 patients
- Fatigue grade 1-4, no. of patients [7]: 2 patients
- Nausea grade 1-4, no. of patients [7]: 1 patients
- Anorexia grade 1-4, no. of patients [8]: 1 patients
- Fatigue grade 1-4, no. of patients [8]: 2 patients
- Nausea grade 1-4, no. of patients [8]: 3 patients
- Vomiting grade 1-4, no. of patients [8]: 3 patients
- Fatigue grade 1-4, no. of patients [9]: 2 patients
- Nausea grade 1-4, no. of patients [9]: 2 patients
- Vomiting grade 1-4, no. of patients [9]: 3 patients
- Anorexia grade 1-4, Total (%) [10]: 5 (13) patients (%)
- Fatigue grade 1-4, Total (%) [10]: 10 (26) patients (%)
- Vomiting grade 1-4, Total (%) [10]: 8 (21) patients (%)
- Nausea grade 1-4, Total (%) (Table 4, after infusion (days 6-28), all dose levels, 39 patients, incl. combination): 10 (26) patients (%)
- Asthenia grade 3-4, no. of patients (Table 4, during infusion (day 1-5), 550 mg m-2 cycle-1, 6 patients studied): 1 patients
- Condition aggravated grade 3-4, no. of patients [11]: 1 patients
- Vesicular rash grade 3-4, no. of patients [11]: 1 patients
- Vomiting grade 3-4, no. of patients [11]: 1 patients
- Asthenia grade 3-4, Total (%) [12]: 1 (3) patients (%)
- Condition aggravated grade 3-4, Total (%) [12]: 1 (3) patients (%)
- Vesicular rash grade 3-4, Total (%) [12]: 1 (3) patients (%)
- Vomiting grade 3-4, Total (%) [12]: 1 (3) patients (%)
- Nausea grade 1-4, no. of patients (Table 4, during infusion (days 1-5), 400 mg m-2 cycle-1, 6 patients studied): 1 patients
- Nausea grade 1-4, no. of patients (Table 4, during infusion (days 1-5), 550 mg m-2 cycle-1, 6 patients studied): 2 patients
- Nausea grade 1-4, no. of patients (Table 4, during infusion (days 1-5), 700 mg m-2 cycle-1, 5 patients studied): 2 patients
- Nausea grade 1-4, Total (%) (Table 4, during infusion (days 1-5), all dose levels, 39 patients): 5 (13) patients (%)
- mild to moderate nausea and vomiting, incidence (after infusion, any causality): 31%
- fatigue, incidence in all patients (after the infusion, any causality): 51%
- anorexia considered related to SAM486A, incidence (all patients): 13%
- fatigue considered related to SAM486A, incidence (all patients): 26%
- nausea considered related to SAM486A, incidence (all patients): 26%
- vomiting considered related to SAM486A, incidence (all patients): 21%
- mild to moderate nausea and vomiting, incidence (during infusion, any causality): 15%
- changes in electrolytes, renal function, LVEF (in vivo): no significant drug-related changes
- correlation coefficient Cmax vs granulocytopenia (in vivo): 0.6794
- dose with reversible dose-limiting neutropenia (in vivo): 550 mg m^–2cycle^–1 and 700 mg m^–2cycle^–1
- fever associated with granulocytopenia (in vivo): three
- median day of granulocyte nadir (in vivo): 21 day of the cycle
- patients with grade 4 granulocytopenia (in vivo): three out of five
- patients with some worsening in performance status (in vivo): eight of the 11
- recommended dose for phase II studies (in vivo): 400 and 400 mg m-2 cycle-1
- time to spontaneous recovery from granulocyte nadir (without growth factors): ≤ 1 week
